The target in assay [1] is T1, human orexin-2 receptor (Homo sapiens, UniProt O43614).
T1 construct: expressed in transfected cells; host or cells: CHO cells (grown under G418 selection)
T1 sequence (O43614 1-444): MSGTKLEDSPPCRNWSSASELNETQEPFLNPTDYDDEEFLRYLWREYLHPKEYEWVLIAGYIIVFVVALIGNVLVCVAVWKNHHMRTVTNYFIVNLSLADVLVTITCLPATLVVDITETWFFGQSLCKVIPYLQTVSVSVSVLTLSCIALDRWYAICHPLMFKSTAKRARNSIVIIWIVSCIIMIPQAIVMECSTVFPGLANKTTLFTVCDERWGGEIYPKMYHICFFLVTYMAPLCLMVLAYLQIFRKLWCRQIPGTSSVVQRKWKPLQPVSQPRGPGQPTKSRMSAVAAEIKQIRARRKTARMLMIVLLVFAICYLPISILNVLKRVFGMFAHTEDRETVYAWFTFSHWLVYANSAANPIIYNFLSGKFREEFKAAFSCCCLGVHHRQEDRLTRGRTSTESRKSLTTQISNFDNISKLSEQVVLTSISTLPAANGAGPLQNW
Briefly: FLIPR Ca2+ flux assay, OX2R. It is filed as cell-based. The following applies: for IC50: CHO cells expressing the human orexin-2 receptor, agonist 70 pM Ala-6,12 orexin-A; for Fold Selective: OX1R FLIPR / OX2R FLIPR. How it is done: (§1) The utility of the compounds in accordance with the present invention as orexin receptor OX1R and/or OX2R antagonists may be readily determined without undue experimentation by methodology well known in the art, including the “FLIPR Ca^2+ Flux Assay” (Okumura et al., Biochem. Biophys. Res. Comm. 280:976-981, 2001). In a typical experiment the OX1 and OX2 receptor antagonistic activity of the compounds of the present invention was determined in accordance with the following experimental method. For intracellular calcium measurements, Chinese hamster ovary (CHO) cells expressing the rat orexin-1 receptor or the human orexin-2 receptor, are grown in Iscove's modified DMEM containing 2 mM L-glutamine, […], 1% hypoxanthine-thymidine supplement, 100 U/ml penicillin, 100 μg/ml streptomycin and 10% heat-inactivated fetal calf serum (FCS). The cells are seeded at 20,000 cells/well into Becton-Dickinson black 384-well clear bottom sterile plates coated with poly-D-lysine. All reagents were from GIBCO-Invitrogen Corp. The seeded plates are incubated overnight at 37° C. and 5% CO2. Ala-6,12 human orexin-A as the agonist is prepared as a 1 mM stock solution in 1% bovine serum albumin (BSA) and diluted in assay buffer (HBSS containing 20 mM HEPES, 0.1% BSA and 2.5 mM probenecid, pH7.4) for use in the assay at a final concentration of 70 pM. Test compounds are prepared as 10 mM stock solution in DMSO, then diluted in 384-well plates, first in DMSO, then assay buffer. On the day of the assay, cells are washed 3 times with 100 μl assay buffer and then incubated for 60 min (37° C., 5% CO2) in 60 μl assay buffer containing 1 μM Fluo-4AM ester, 0.02% pluronic acid, and 1% BSA. The dye loading solution is then aspirated and cells are washed 3 times with 100 μl assay buffer. 30 μl of that same buffer is left in each well. Within the Fluorescent Imaging Plate Reader (FLIPR, Molecular Devices), test compounds are added to the plate in a volume of 25 μl, incubated for 5 min and finally 25 μl of agonist is added. Fluorescence is measured for each well at 1 second intervals for 5 minutes and the height of each fluorescence peak is compared to the height of the fluorescence peak induced by 70 pM Ala-6,12 orexin-A with buffer in place of antagonist. For each antagonist, IC50 value (the concentration of compound needed to inhibit 50% of the agonist response) is determined. Alternatively, compound potency can be assessed by a radioligand binding assay (described in Bergman et. al. Bioorg. Med. Chem. Lett. 2008, 18, 1425-1430) in which the inhibition constant (Ki) is determined in membranes prepared from CHO cells expressing either the OX1 or OX2 receptor. The intrinsic orexin receptor antagonist activity of a compound which may be used in the present invention may be determined by these assays.
For orientation: Calcium assays in cells follow changes in intracellular calcium, usually with a dye or a luminescent sensor.

In assay [2] the target is T2, rat orexin-1 receptor (Rattus norvegicus, UniProt P56718).
T2 construct: expressed in transfected cells; host or cells: CHO cells (grown under G418 selection)
T2 sequence (P56718 1-416): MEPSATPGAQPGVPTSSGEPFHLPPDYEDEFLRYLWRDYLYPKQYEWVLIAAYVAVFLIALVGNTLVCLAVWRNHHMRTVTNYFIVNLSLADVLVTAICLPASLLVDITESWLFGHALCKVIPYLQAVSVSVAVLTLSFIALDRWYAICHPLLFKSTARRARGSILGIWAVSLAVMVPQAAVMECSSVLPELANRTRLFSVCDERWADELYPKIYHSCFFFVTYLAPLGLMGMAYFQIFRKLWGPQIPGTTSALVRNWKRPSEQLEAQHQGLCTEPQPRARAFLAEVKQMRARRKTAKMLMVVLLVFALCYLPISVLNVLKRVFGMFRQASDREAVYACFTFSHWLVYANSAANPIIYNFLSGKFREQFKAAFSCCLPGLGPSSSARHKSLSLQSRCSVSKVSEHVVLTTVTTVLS
Nature of the assay: FLIPR Ca2+ flux assay, OX1R. It is filed as cell-based. The following applies: CHO cells expressing the rat orexin-1 receptor; agonist 70 pM Ala-6,12 orexin-A. The method, then: as §1

Regarding `Cc1cc(C#N)nc(N2CC3CC2CN(C(=O)c2ccccc2CS(C)(=O)=O)C3)n1` (stereo not drawn) [Example 7, 6-methyl-2-(3-(2-((methylsulfonyl)methyl)benzoyl)-3,6-diazabicyclo[3.2.1]octan-6-yl)pyrimidine-4-carbonitrile], the half-maximal inhibitory concentration (IC50) (as a rule, the concentration needed to halve the response being measured) in assay [1] was 61 nM; in assay [2] it was more than 10000 nM. For the same compound, the “Fold Selective” value in assay [1] is on record as more than 164.
For `Cc1cc(C)nc(N2CC3CC2CN(C(=O)c2ccccc2OCC(F)(F)F)C3)n1` (stereo not drawn) [Example 26, 6-(4,6-dimethylpyrimidin-2-yl)-3-{[2-(2,2,2-trifluoroethoxy)-phenyl]carbonyl}-3,6-diazabicyclo[3.2.1]octane], in that order: 10 nM, 1140 nM and 114.
For `Cc1cc(C)nc(N2CC3CC2CN(C(=O)c2ccccc2C2(F)CC2)C3)n1` (stereo not drawn) [Example 18, 6-(4,6-dimethylpyrimidin-2-yl)-3-{[2-(1-fluorocyclopropyl)-phenyl]carbonyl}-3,6-diazabicyclo[3.2.1]octane], in that order: 15 nM, 872 nM and 58.
For `Cc1cc(C)nc(N2CC3CC2CN(C(=O)c2cc(F)ccc2C2CC2)C3)n1` (stereo not drawn) [Example 12, 3-[(2-cyclopropyl-5-fluorophenyl)carbonyl]-6-(4,6-dimethylpyrimidin-2-yl)-3,6-diazabicyclo[3.2.1]octane], in that order: 22 nM, 1040 nM and 47.
In the case of `Cc1cc(C)nc(N2CC3CC2CN(C(=O)c2cccnc2-n2nccn2)C3)n1` (stereo not drawn) [Example 31, 6-(4,6-dimethylpyrimidin-2-yl)-3-{[2-(2H-1,2,3-triazol-2-yl)pyridin-3-yl]carbonyl}-3,6-diazabicyclo[3.2.1]octane], in assay [1], the IC50 was determined as 90 nM and the “Fold Selective” value was more than 111. Further, in assay [2], the IC50 was more than 10000 nM.
As for `Cc1cc(C)nc(N2CC3CC2CN(C(=O)c2ccccc2OC(C)C)C3)n1` (stereo not drawn) [Example 16, 6-(4,6-dimethylpyrimidin-2-yl)-3-{[2-(1-methylethoxy)-phenyl]carbonyl}-3,6-diazabicyclo[3.2.1]octane], the IC50 in assay [1] is 16 nM; in assay [2], 982 nM. Besides, the “Fold Selective” value in assay [1] came to 61.
For the compound `Cc1cc(C)nc(N2CC3CC2CN(C(=O)c2cccnc2OCC(C)O)C3)n1` (stereo not drawn) [Example 45, 1-[(3-{[6-(4,6-dimethylpyrimidin-2-yl)-3,6-diazabicyclo[3.2.1]oct-3-yl]carbonyl}pyridin-2-yl)oxy]propan-2-ol], in assay [1], the IC50 came out at 90 nM and the “Fold Selective” value is on record as more than 111. This compound returned an IC50 in assay [2] of more than 10000 nM.
For `Cc1cc(C)nc(N2CC3CC2CN(C(=O)c2cccnc2OCC2CC2)C3)n1` (stereo not drawn) [Example 39, 3-{[2-(cyclopropyl-methoxy)pyridin-3-yl]carbonyl}-6-(4,6-dimethylpyrimidin-2-yl)-3,6-diazabicyclo-[3.2.1]octane], in that order: 13 nM, 106 and 1370 nM.
`Cc1cc(C)nc(N2CC3CC2CN(C(=O)c2nccnc2-n2cccn2)C3)n1` (stereo not drawn) [Example 20, 6-(4,6-dimethylpyrimidin-2-yl)-3-{[3-(1H-pyrazol-1-yl)pyrazin-2-yl]carbonyl}-3,6-diazabicyclo[3.2.1]octane]: in assay [1], the IC50 was determined as 50 nM and the “Fold Selective” value turned out to be 68. The compound further registered an IC50 in assay [2] of 3400 nM.
For `Cc1cc(C#N)nc(N2CC3CC2CN(C(=O)c2ccccc2OC(F)F)C3)n1` (stereo not drawn) [Example 2, 2-(3-(2-(difluoromethoxy)benzoyl)-3,6-diazabicyclo[3.2.1]-octan-6-yl)-6-methylpyrimidine-4-carbonitrile], in that order: 46 nM, more than 217 and more than 10000 nM.

(Values after patent US9994570B2, “Bridged diazepane orexin receptor antagonists” (MERCK SHARP & DOHME CORP., priority 2014, dated 2018).)
